In assay [1] the target is T1, human IGF1R kinase domain (Homo sapiens, UniProt P08069).
T1 construct: human IGF1R precursor protein corresponding to the amino acids positions 974 through 1293; 6xHis; made in house; host or cells: SF9 insect cells, recombinant baculovirus (Bac-to-Bac System)
The assay is described as follows: IGF1R tyrosine phosphorylation inhibition, Alphascreen phosphotyrosine PT66 assay. It is filed as biochemical. The following applies: recombinant kinase domain, 1 hour co-incubation, 20 to 0.1 μM. The method, then:
Inhibition of IGF1R tyrosine phosphorylation was measured in the Alphascreen phosphotyrosine PT66 assay kit (Perkin Elmer Life sciences, Catalog number 6760602) according to the manufacturer's instructions. As a source of enzymatically active IGF1r kinase for this assay, SF9 insect cells were infected with recombinant baculovirus (Bac-to-Bac System, Invitrogen, Carlsbad, Calif.) encoding 6×His-tagged kinase domain portion of human IGF1R precursor protein corresponding to the amino acids positions 974 through 1293 (Abbott et al., 1992, J. Biol. Chem. 267:10759-10763) and recombinant kinase protein was purified to homogeneity using two-step chromatography on immobilized Ni^2+ resin (Ni-NTA) and ion-exchange Q-Sepharose column. Biotinylated poly glu-tyr 4:1 (CIS bio-international, catalog number 61GT0BLA) was used for the kinase substrate. Compounds were serially diluted to give a concentration range from 20 to 0.1 μM and co-incubated with IGF1r kinase, biotinylated peptide substrate and alphascreen components for 1 hour and then read in a Perkin-Elmer alphafusion plate reader. A plot of counts per minute versus log concentration of compounds was fitted to a sigmoidal dose response curve using Graphpad Prism software to generate IC50 values (see FIG. 1 for an example).

For assay [2], the system named is MCF7 human breast tumor cells. The experiment in a line: CellTiter-Glo luminescent cell viability assay, MCF7. Format: cell-based. The following applies: 48 hours, 20 to 0.1 μM. The method, then:
(§1) Cell viability of either MCF7 human breast tumor cells (American Type Culture Collection catalog #HTB 22) or NCI-H929 human plasmacytoma cells (ATCC catalog #CRL-9068) was assessed using the Promega CellTiter-Glo luminescent cell viability assay according to manufacturer's instructions. In brief, cells were plated at 10,000 cells per well in a clear bottom white 96 well microtiter plate (Costar catalog #3604) in 100 μL of cell growth medium. Compounds were then added to the cells to give final concentrations of compound ranging from 20 to 0.1 μM. Cells were incubated 48 hours after which 100 μL per well of celltiter-glo reagent was added and luminescence was measured in a BMG polarstar plate luminometer. A plot of counts per minute versus log concentration of compounds was fitted to a sigmoidal dose response curve using Graphpad Prism software to generate IC50 values.
For orientation: In ATP-based viability assays light output follows the ATP content of the culture.

In assay [3] the test system is NCI-H929 human plasmacytoma cells. The assay is described as follows: CellTiter-Glo luminescent cell viability assay, NCI-H929. It is filed as cell-based. The following applies: 48 hours, 20 to 0.1 μM. The method, then:
as §1

T1 sequence (P08069 974-1293): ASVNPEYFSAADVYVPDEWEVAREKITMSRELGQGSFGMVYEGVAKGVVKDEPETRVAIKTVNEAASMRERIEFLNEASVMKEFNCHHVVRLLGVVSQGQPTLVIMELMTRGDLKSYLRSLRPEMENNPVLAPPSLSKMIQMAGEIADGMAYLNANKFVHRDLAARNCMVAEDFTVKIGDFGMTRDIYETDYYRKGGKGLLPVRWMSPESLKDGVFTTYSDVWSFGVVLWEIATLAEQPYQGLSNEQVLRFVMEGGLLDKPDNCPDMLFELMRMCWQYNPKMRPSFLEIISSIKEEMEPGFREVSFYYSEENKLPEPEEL

With `CN1CCN(Cc2cccc(NC(=O)c3cc(N)n(-c4ncc5c(n4)-c4ccccc4CC5)n3)c2)CC1`, the half-inhibitory concentration (IC50) (usually the point on the concentration scale where inhibition reaches its midpoint) in assay [1] is at most 5 µM; in assay [2], 10 to 15 µM; in assay [3], 10 to 15 µM.
For the compound `COc1ccc2c(c1)OCc1cnc(-n3cc(C(=O)NCCCc4ccncc4)c(N)n3)nc1-2`, the IC50 in assay [1], in assay [2] and in assay [3] was 10 to 15 µM in each case.
On to `CN1CCN(c2ccc3nc(-c4cc(-c5cccnc5)ccc4O)[nH]c3c2)CC1`, for which the half-inhibitory concentration (IC50) was at most 5 µM in assay [1], 10 to 15 µM in assay [2] and 10 to 15 µM in assay [3].
Regarding `CN1CCN(c2ccc3nc(-c4ccc(OCc5ccccc5)cc4O)[nH]c3c2)CC1`, the IC50 is at most 5 µM in assay [1], 10 to 15 µM in assay [2] and above 25 µM in assay [3].
Consider `CN1CCN(c2ccc3nc(-c4ccc(O)c(O)c4O)[nH]c3c2)CC1`, for which the IC50 in assay [1] was at most 5 µM; in assay [2], 10 to 15 µM; in assay [3], 10 to 15 µM.
With `CCN1CCC2(CCN(c3cc(C)c4nc(-c5c(NC[C@@H](O)c6cccc(Cl)c6)cc[nH]c5=O)[nH]c4c3)C2)C1` (stereo partly drawn), the IC50 in assay [1] is at most 5 µM; in assay [2], 5 to 10 µM; in assay [3] it was at most 5 µM.
With `Cc1cc(N2CCN(C)CC2)cc2nc(-c3nc4cc(N5CCN(C)CC5)cc(C)c4[nH]3)[nH]c12`, the IC50 was at most 5 µM in assay [1], above 25 µM in assay [2] and 10 to 15 µM in assay [3].
Regarding `CCN1CCC2(CCN(CCc3ccc(NC(=O)c4ccc5[nH]c(-c6cc(-c7cccnc7OC)ccc6O)nc5c4)cc3)C2)C1` (stereo not drawn), the results for the IC50 in assay [1], in assay [2] and in assay [3] were at most 5 µM, 10 to 15 µM and at most 5 µM, respectively.
In the case of `COc1ncccc1-c1ccc(O)c(-c2nc3ccc(C(=O)Nc4ccc(CCN5CCCC6(CCCN(C)C6)C5)cc4)cc3[nH]2)c1` (stereo not drawn), the IC50 was at most 5 µM in assay [1], 5 to 10 µM in assay [2] and at most 5 µM in assay [3].
Regarding `COc1ncccc1-c1ccc2[nH]c(-c3nc4cc(N5CCN(C)CC5)ccc4[nH]3)nc2c1`, the results for the IC50 in assay [1], in assay [2] and in assay [3] were at most 5 µM, 10 to 15 µM and at most 5 µM, respectively.
Regarding `COc1ncccc1-c1ccc2[nH]c(-c3nc4cc(C(=O)Nc5ccc(CCN6CCN(C)CC6)cc5)ccc4[nH]3)nc2c1`, the IC50 in assay [1] is at most 5 µM; in assay [2], 10 to 15 µM; in assay [3] it was at most 5 µM.
In the case of `CCN1CCC2(CCN(CCc3ccc(NC(=O)c4ccc5[nH]c(-c6cc(-c7cccnc7O)ccc6O)nc5c4)cc3)C2)C1` (stereo not drawn) [drawing 1786], the values for the IC50 in assay [1], in assay [2] and in assay [3] were at most 5 µM, 5 to 10 µM and at most 5 µM, respectively.
On to `CN1CCCC2(CCCN(CCc3ccc(NC(=O)c4ccc5nc(-c6cc(-c7cccnc7O)ccc6O)[nH]c5c4)cc3)C2)C1` (stereo not drawn) [drawing 1788], for which the IC50 is at most 5 µM in assay [1], 10 to 15 µM in assay [2] and at most 5 µM in assay [3].

These data come from patent US8629147B2, “Heterocyclic compounds useful in the treatment of neoplastic diseases, inflammatory disorders and immunomodulatory disorders” (ChemBridge Corporation, priority 2005, dated 2014).
